According to US12077503B2, “Substituted cyclic amides and their use as herbicides” (FMC CORPORATION, priority 2015, dated 2024):

What was measured:
Type in all cases: in vivo
[1] = test system: wheat (Triticum aestivum); experiment: Test A postemergence; settings: Triticum aestivum, post-emergence, 240 h, postemergence; for plant injury at 125 g/ha: 125 g ai/ha, visual injury vs untreated controls after approx. 10 d, 0 = no effect, 100 = complete control, read-out: Wheat plant response rating (0 to 100 scale); for plant injury at 500 g/ha: 500 g ai/ha, 0 to 100 scale, 0 is no effect, 100 is complete control, read-out: Wheat plant response rating
Summary of the method: (§1)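 Seeds sprayed preemergence with a directed soil spray, or plants at 2 to 10 cm height and one- to two-leaf stage sprayed postemergence, with test chemicals in a non-phytotoxic solvent mixture containing surfactant, in loam soil–sand blend. Injury rated visually against untreated controls after about 10 d in greenhouse, 0 (no effect) to 100 (complete control).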

[2] = test system: barnyardgrass (Echinochloa crus-galli); experiment: Test A postemergence; settings: Echinochloa crus-galli, post-emergence, 240 h, postemergence; for pest or weed control at 125 g/ha: 125 g ai/ha, visual injury vs untreated controls after approx. 10 d, 0 = no effect, 100 = complete control, read-out: Barnyardgrass plant response rating (0 to 100 scale); for pest or weed control at 500 g/ha: 500 g ai/ha, 0 to 100 scale, 0 is no effect, 100 is complete control, read-out: Barnyardgrass plant response rating
Summary of the method: as §1

[3] = test system: Galium (catchweed bedstraw, Galium aparine); experiment: Test A postemergence; settings: Galium, post-emergence, 240 h, postemergence; for pest or weed control at 125 g/ha: 125 g ai/ha, visual injury vs untreated controls after approx. 10 d, 0 = no effect, 100 = complete control, read-out: Galium plant response rating (0 to 100 scale); for pest or weed control at 500 g/ha: 500 g ai/ha, 0 to 100 scale, 0 is no effect, 100 is complete control, read-out: Galium plant response rating
Summary of the method: as §1

[4] = test system: blackgrass (Alopecurus myosuroides); experiment: Test A postemergence; settings: Alopecurus myosuroides, post-emergence, 240 h, postemergence; for pest or weed control at 125 g/ha: 125 g ai/ha, visual injury vs untreated controls after approx. 10 d, 0 = no effect, 100 = complete control, read-out: Blackgrass plant response rating (0 to 100 scale); for pest or weed control at 500 g/ha: 500 g ai/ha, 0 to 100 scale, 0 is no effect, 100 is complete control, read-out: Blackgrass plant response rating
Summary of the method: as §1

[5] = test system: corn (Zea mays); experiment: Test A postemergence; settings: Zea mays, post-emergence, 240 h, postemergence; for plant injury at 125 g/ha: 125 g ai/ha, visual injury vs untreated controls after approx. 10 d, 0 = no effect, 100 = complete control, read-out: Corn plant response rating (0 to 100 scale); for plant injury at 500 g/ha: 500 g ai/ha, 0 to 100 scale, 0 is no effect, 100 is complete control, read-out: Corn plant response rating
Summary of the method: as §1

[6] = test system: ryegrass, Italian (Italian ryegrass, Lolium multiflorum); experiment: Test A postemergence; settings: Lolium multiflorum, post-emergence, 240 h, postemergence; for pest or weed control at 125 g/ha: 125 g ai/ha, visual injury vs untreated controls after approx. 10 d, 0 = no effect, 100 = complete control, read-out: Ryegrass, Italian plant response rating (0 to 100 scale); for pest or weed control at 500 g/ha: 500 g ai/ha, 0 to 100 scale, 0 is no effect, 100 is complete control, read-out: Ryegrass, Italian plant response rating
Summary of the method: as §1

[7] = test system: ragweed (common ragweed, Ambrosia elatior); experiment: Test A postemergence; settings: Ambrosia artemisiifolia, post-emergence, 240 h, postemergence; for pest or weed control at 125 g/ha: 125 g ai/ha, visual injury vs untreated controls after approx. 10 d, 0 = no effect, 100 = complete control, read-out: Ragweed plant response rating (0 to 100 scale); for pest or weed control at 500 g/ha: 500 g ai/ha, 0 to 100 scale, 0 is no effect, 100 is complete control, read-out: Ragweed plant response rating
Summary of the method: as §1

[8] = test system: pigweed (Amaranthus retroflexus); experiment: Test A postemergence; settings: Amaranthus retroflexus, post-emergence, 240 h, postemergence; for pest or weed control at 125 g/ha: 125 g ai/ha, visual injury vs untreated controls after approx. 10 d, 0 = no effect, 100 = complete control, read-out: Pigweed plant response rating (0 to 100 scale); for pest or weed control at 500 g/ha: 500 g ai/ha, 0 to 100 scale, 0 is no effect, 100 is complete control, read-out: Pigweed plant response rating
Summary of the method: as §1

[9] = test system: giant foxtail (Setaria faberii); experiment: Test A postemergence; settings: Setaria faberi, post-emergence, 240 h, postemergence; for pest or weed control at 125 g/ha: 125 g ai/ha, visual injury vs untreated controls after approx. 10 d, 0 = no effect, 100 = complete control, read-out: Foxtail, Giant plant response rating (0 to 100 scale); for pest or weed control at 500 g/ha: 500 g ai/ha, 0 to 100 scale, 0 is no effect, 100 is complete control, read-out: Foxtail, Giant plant response rating
Summary of the method: as §1

[10] = test system: barnyardgrass (Echinochloa crus-galli); experiment: Test B flooded paddy test; settings: Echinochloa crus-galli, 250 g ai/ha, Flood; 0 to 100 scale where 0 is no effect and 100 is complete control; read-out: Barnyardgrass plant response rating
Summary of the method: (§2)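 Plants at 2-leaf stage flooded to 3 cm above soil, with compounds applied directly to paddy water and that depth maintained. Plants kept in greenhouse 13–15 d. Visual rating versus controls on a 0 (no effect) to 100 (complete control) scale.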

[11] = test system: rice (Oryra sativa); experiment: Test B flooded paddy test; settings: Oryza sativa, 250 g ai/ha, Flood; 0 to 100 scale where 0 is no effect and 100 is complete control; read-out: Rice plant response rating
Summary of the method: as §2

[12] = test system: sedge, umbrella (small-flower umbrella sedge, Cyperus difformis); experiment: Test B flooded paddy test; settings: Cyperus difformis, 250 g ai/ha, Flood; 0 to 100 scale where 0 is no effect and 100 is complete control; read-out: Sedge, Umbrella plant response rating
Summary of the method: as §2

[13] = test system: ducksalad (Heteranthera limosa); experiment: Test B flooded paddy test; settings: Heteranthera limosa, 250 g ai/ha, Flood; 0 to 100 scale where 0 is no effect and 100 is complete control; read-out: Ducksalad plant response rating
Summary of the method: as §2

[14] = test system: pigweed (Amaranthus retroflexus); experiment: Test A preemergence; settings: Amaranthus retroflexus, pre-emergence, 240 h, preemergence, 0 to 100 scale where 0 is no effect and 100 is complete control, read-out: Pigweed plant response rating; for pest or weed control at 125 g/ha: 125 g ai/ha; for pest or weed control at 500 g/ha: 500 g ai/ha
[15] = visual injury rating, approximately 10 d

SMILES: Cc1nc([C@H]2CNC(=O)[C@@H]2C(=O)Nc2ccccc2F)cs1 [Compound 1179]
- plant injury at 125 g/ha [1]: 0%
- plant injury at 500 g/ha [1]: 0%
- pest or weed control at 125 g/ha [2]: 0%
- pest or weed control at 500 g/ha [2]: 0%
- pest or weed control at 125 g/ha [3]: 0%
- pest or weed control at 500 g/ha [3]: 0%
- pest or weed control at 125 g/ha [4]: 0%
- pest or weed control at 500 g/ha [4]: 0%
- plant injury at 125 g/ha [5]: 0%
- plant injury at 500 g/ha [5]: 0%
- pest or weed control at 125 g/ha [6]: 0%
- pest or weed control at 500 g/ha [6]: 0%
- pest or weed control at 125 g/ha [7]: 0%
- pest or weed control at 500 g/ha [7]: 0%
- pest or weed control at 125 g/ha [8]: 0%
- pest or weed control at 500 g/ha [8]: 0%
- pest or weed control at 125 g/ha [9]: 0%
- pest or weed control at 500 g/ha [9]: 0%
- pest or weed control at 250 g/ha [10]: 0%
- pest or weed control at 250 g/ha [11]: 0%
- pest or weed control at 250 g/ha [12]: 0%
- pest or weed control at 250 g/ha [13]: 40%
- pest or weed control at 125 g/ha ([14]; approx. 10 d): 0%
- pest or weed control at 500 g/ha [14]: 0%

SMILES: CSc1ccccc1NC(=O)[C@H]1C(=O)N(C)CC[C@@H]1c1ccc(C)cc1 [Compound 1222]
- plant injury at 125 g/ha [1]: 0%
- plant injury at 500 g/ha [1]: 0%
- pest or weed control at 125 g/ha [2]: 0%
- pest or weed control at 500 g/ha [2]: 0%
- pest or weed control at 125 g/ha [3]: 0%
- pest or weed control at 500 g/ha [3]: 0%
- pest or weed control at 125 g/ha [4]: 0%
- pest or weed control at 500 g/ha [4]: 0%
- plant injury at 125 g/ha [5]: 0%
- plant injury at 500 g/ha [5]: 0%
- pest or weed control at 125 g/ha [6]: 0%
- pest or weed control at 500 g/ha [6]: 0%
- pest or weed control at 125 g/ha [7]: 0%
- pest or weed control at 500 g/ha [7]: 0%
- pest or weed control at 125 g/ha [8]: 0%
- pest or weed control at 500 g/ha [8]: 0%
- pest or weed control at 125 g/ha [9]: 20%
- pest or weed control at 500 g/ha [9]: 70%
- pest or weed control at 250 g/ha [10]: 0%
- pest or weed control at 250 g/ha [11]: 15%
- pest or weed control at 250 g/ha [12]: 70%
- pest or weed control at 250 g/ha [13]: 65%
- pest or weed control at 125 g/ha [14, 15]: 0%
- pest or weed control at 500 g/ha [14]: 0%

SMILES: O=C1NC[C@H](c2nccs2)[C@H]1C(=O)Nc1ccccc1F [Compound 1181]
- plant injury at 125 g/ha [1]: 0%
- plant injury at 500 g/ha [1]: 0%
- pest or weed control at 125 g/ha [2]: 0%
- pest or weed control at 500 g/ha [2]: 0%
- pest or weed control at 125 g/ha [3]: 0%
- pest or weed control at 500 g/ha [3]: 0%
- pest or weed control at 125 g/ha [4]: 0%
- pest or weed control at 500 g/ha [4]: 0%
- plant injury at 125 g/ha [5]: 0%
- plant injury at 500 g/ha [5]: 0%
- pest or weed control at 125 g/ha [6]: 0%
- pest or weed control at 500 g/ha [6]: 0%
- pest or weed control at 125 g/ha [7]: 0%
- pest or weed control at 500 g/ha [7]: 0%
- pest or weed control at 125 g/ha [8]: 0%
- pest or weed control at 500 g/ha [8]: 0%
- pest or weed control at 125 g/ha [9]: 0%
- pest or weed control at 500 g/ha [9]: 0%
- pest or weed control at 250 g/ha [10]: 0%
- pest or weed control at 250 g/ha [11]: 0%
- pest or weed control at 250 g/ha [12]: 0%
- pest or weed control at 250 g/ha [13]: 35%
- pest or weed control at 125 g/ha ([14]; approx. 10 d): 0%
- pest or weed control at 500 g/ha [14]: 0%

SMILES: Cc1ccc([C@H]2CCN(C)C(=O)[C@@H]2C(=O)Nc2ccc(F)c(F)c2F)cc1 [Compound 1221]
- plant injury at 125 g/ha [1]: 20%
- plant injury at 500 g/ha [1]: 60%
- pest or weed control at 125 g/ha [2]: 30%
- pest or weed control at 500 g/ha [2]: 60%
- pest or weed control at 125 g/ha [3]: 40%
- pest or weed control at 500 g/ha [3]: 60%
- pest or weed control at 125 g/ha [4]: 60%
- pest or weed control at 500 g/ha [4]: 70%
- plant injury at 125 g/ha [5]: 0%
- plant injury at 500 g/ha [5]: 60%
- pest or weed control at 125 g/ha [6]: 20%
- pest or weed control at 500 g/ha [6]: 70%
- pest or weed control at 125 g/ha [7]: 0%
- pest or weed control at 500 g/ha [7]: 20%
- pest or weed control at 125 g/ha [8]: 0%
- pest or weed control at 500 g/ha [8]: 0%
- pest or weed control at 125 g/ha [9]: 90%
- pest or weed control at 500 g/ha [9]: 90%
- pest or weed control at 250 g/ha [10]: 85%
- pest or weed control at 250 g/ha [11]: 0%
- pest or weed control at 250 g/ha [12]: 0%
- pest or weed control at 250 g/ha [13]: 100%
- pest or weed control at 125 g/ha [14, 15]: 0%
- pest or weed control at 500 g/ha [14]: 50%
